# Data published in publication PMC6274786 (International Journal of Molecular Sciences, 2018).
# pKi: −log10 of the molar value. Read-outs that look alike come from different tables or passages of the source.
# Columns and labels:
# PTZ-induced seizure = assay: Pentylenetetrazole (PTZ)-induced seizure; type: in vivo, Wistar rats; settings: for PTZ-Induced Seizure (protection class): PTZ 60 mg/kg; for protective effect in PTZ-induced seizure (in words): observed over 30 min, vs saline-treated group
# Protocol: (§1) In this study and according to previously used protocols, two chemical agents have been used to induce seizures, namely pentylenetetrazole (PTZ, 60 mg/kg, i.p.) and strychnine (STR, 3.5 mg/kg, i.p.). PTZ 60 mg/kg or STR 3.5 mg/kg were administered i.p. to all groups of seven rats (n = 7), that is, animals pretreated with vehicle or test compounds 1–16. Vehicle, VPA (300 mg/kg, i.p.), [26, 47, 48, 49] or test compounds 1–16 (10 mg/kg, i.p.) were systemically administered 30–45 min before PTZ (60 mg/kg, i.p.) or STR (3.5 mg/kg, i.p.) injection, and animals were directly observed for any signs of convulsion for a duration of 30 min. The observed scores as well as percent protection against generalized tonic-clonic seizure (GTCS) were graded and scaled according to the Racine scale (stage 0, no change in behavior; stage 1, stereotype mouthing, eye blinking, and/or mild facial clonus; stage 2, head nodding and/or severe facial clonus; stage 3, myoclonic jerk in forelimbs; stage 4, clonic convulsions in the forelimbs with rearing; stage 5, generalized colonic convulsions associated with loss of balance) to evaluate the protection provided by the respective test compound against seizures. The animals were divided into eighteen groups of seven rats (n = 7) and treated as follows.
# (§2) (1) Control group injected with vehicle + PTZ (SAL group), (2) positive control group in which rats were injected with VPA (300 mg/kg) + PTZ (VPA group), and animals in the test groups (3)–(18) were systemically administered with test compounds 1–16 (10 mg/kg), respectively. An additional PTZ experiment was conducted using three different groups of seven rats (n = 7), the H3R ligand with the most promising protection in PTZ model was administered at doses of 2.5, 5, or 15 mg/kg, i.p. 30–45 min before the PTZ challenge. […] The same experimental procedure was followed in the STR-induced seizure model applying the reference drug VPA, which was used at a dose of 300 mg/kg, i.p. (Figure 3, Table 2).
# STR-induced seizure = assay: Strychnine (STR)-induced seizure; type: in vivo, Wistar rats; settings: for STR-Induced Seizure (protection class): STR 3.5 mg/kg; for protective effect in STR-induced seizure (in words): 30 min observation, vs saline-treated group
# Protocol: as §1, §2
# MES-induced seizure = assay: Maximal electroshock (MES)-induced seizure; type: in vivo, Wistar rats; settings: 10 mg/kg i.p.; for MES-Induced Seizure (protection class): 50 Hz, 120 mA, 1 s
# Text: As previously described, the seizures were induced in rats with a 50 Hz alternating current of 120 mA intensity. The current was applied through ear electrodes for 1 s. Protection against the spread of MES-induced seizure was defined as the abolition of the tonic hind limb extension (THLE) component of the seizure. For the first screening of protective effects of test compounds 1–16 in the MES-induced seizure model, the animals were divided into eighteen groups of seven rats (n = 7) as follows; group (1) control group injected with vehicle (SAL), group (2) positive control group in which rats were injected with PHT at a dose of 10 mg/kg (this being the minimal dose of PHT that protected animals against the spread of MES-induced seizures without mortality), and groups (3)–(18) animals in the experimental groups were administered H3R antagonists 1–16 at a dose of 10 mg/kg. In another MES experiment in three separate groups of six rats (n = 6), H3R antagonist 4 with the most promising protection in MES model was administered at doses of 2.5, 5, or 15 mg/kg, i.p. 30–45 min before the MES challenge.
# human histamine H3R = molecular target: T1, human histamine H3R (Homo sapiens, UniProt Q9Y5N1); assay: [3H]Nα-methylhistamine radioligand displacement assay, HEK-293 cell membranes; type: binding; settings: for Ki: mean with 95% confidence interval, read-out: In Vitro Affinity Ki (hH3R) in nM [CI]
# T1 construct: expressed in transfected cells
# T1 sequence (Q9Y5N1 whole entry): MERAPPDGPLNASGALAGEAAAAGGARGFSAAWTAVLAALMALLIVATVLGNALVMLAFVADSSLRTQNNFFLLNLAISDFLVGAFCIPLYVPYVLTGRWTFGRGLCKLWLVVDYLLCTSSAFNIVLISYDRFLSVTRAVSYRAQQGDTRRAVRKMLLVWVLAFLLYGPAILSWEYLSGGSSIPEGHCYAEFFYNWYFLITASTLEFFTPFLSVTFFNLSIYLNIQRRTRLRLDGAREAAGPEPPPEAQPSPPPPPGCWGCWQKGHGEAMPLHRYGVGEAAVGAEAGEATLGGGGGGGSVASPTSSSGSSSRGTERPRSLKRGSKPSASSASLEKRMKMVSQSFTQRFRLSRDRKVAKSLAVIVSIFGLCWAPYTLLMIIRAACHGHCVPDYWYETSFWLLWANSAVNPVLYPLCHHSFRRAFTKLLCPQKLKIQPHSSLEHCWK
# Protocol: As described previously, the affinity for the human histamine H3R was tested utilizing radioligand displacement assays with [^3H]N^α-methylhistamine at membrane preparations from human embryonic kidney (HEK)-293 cells, stably expressing the receptor. […] The analysis of data was conducted by the software GraphPad Prism 7 (San Diego, CA, USA), using the “one-site competition” equation. Ki values were calculated from the 50 percent of inhibitory concentration (IC50) values according to the Cheng-Prusoff equation [44]
# human H1 receptor = molecular target: T2, human H1 receptor (Homo sapiens, UniProt P35367); assay: Radioligand binding, membranes from CHO-K1 cells
# T2 construct: purchased PerkinElmer; host or cells: CHO-K1 cells, stably transfected (membranes)
# T2 sequence (P35367 whole entry): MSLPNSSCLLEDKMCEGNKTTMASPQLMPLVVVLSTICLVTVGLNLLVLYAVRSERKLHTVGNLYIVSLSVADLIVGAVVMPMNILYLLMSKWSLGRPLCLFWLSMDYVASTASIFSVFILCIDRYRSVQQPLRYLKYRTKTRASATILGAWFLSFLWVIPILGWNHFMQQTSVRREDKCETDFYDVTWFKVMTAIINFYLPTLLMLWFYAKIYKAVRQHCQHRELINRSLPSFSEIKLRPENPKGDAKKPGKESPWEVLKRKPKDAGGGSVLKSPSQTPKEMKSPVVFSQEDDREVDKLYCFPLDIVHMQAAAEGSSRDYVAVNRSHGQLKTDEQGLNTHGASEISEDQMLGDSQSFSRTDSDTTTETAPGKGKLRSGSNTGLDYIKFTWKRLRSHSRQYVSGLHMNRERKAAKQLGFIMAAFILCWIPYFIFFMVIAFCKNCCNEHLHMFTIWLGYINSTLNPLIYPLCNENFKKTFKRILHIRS
# Protocol: Radioligand binding was performed as previously described using membranes from CHO-K1 cells stably transfected with the human H1 receptor (PerkinElmer., Waltham, MA, USA). Data were fitted to a one-site curve-fitting equation with Prism 6 (GraphPad Software, city, state, country) and Ki values were estimated from the Cheng–Prusoff equation [44].
# hH4R = molecular target: T3, hH4R (Homo sapiens, UniProt Q9H3N8); assay: H4R radioligand displacement assay, Sf9 cell membrane preparations; type: binding
# T3 construct: expressed in transfected cells; host or cells: Sf9 insect cells (membrane preparations)
# T3 sequence (Q9H3N8 whole entry): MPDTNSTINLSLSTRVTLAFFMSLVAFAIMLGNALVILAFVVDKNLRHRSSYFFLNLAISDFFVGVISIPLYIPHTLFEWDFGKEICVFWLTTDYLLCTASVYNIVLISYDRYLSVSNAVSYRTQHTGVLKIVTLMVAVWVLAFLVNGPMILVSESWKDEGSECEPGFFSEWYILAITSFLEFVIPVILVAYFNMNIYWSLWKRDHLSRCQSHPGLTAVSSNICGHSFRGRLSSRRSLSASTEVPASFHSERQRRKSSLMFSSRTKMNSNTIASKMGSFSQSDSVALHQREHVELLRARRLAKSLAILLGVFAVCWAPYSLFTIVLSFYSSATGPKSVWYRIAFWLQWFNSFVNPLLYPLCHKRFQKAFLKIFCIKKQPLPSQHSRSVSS
# Protocol: H4R radioligand displacement assays were performed with Sf9 cell membrane preparations, expressing the hH4R, as described previously. Assays ran in triplicates with four appropriate concentrations of the test compound. Data were analyzed by GraphPad Prism 7, using the “one-site competition” equation.
SMILES,MES-Induced Seizure (protection class) (MES-induced seizure),PTZ-Induced Seizure (protection class) (PTZ-induced seizure; 10 mg/kg i.p.),STR-Induced Seizure (protection class) (STR-induced seizure; 10 mg/kg i.p.),pKi (human histamine H3R),also measured
"CCCC(CCC)C(=O)O [VPA, valproic acid, reference compound]",,,,,PTZ-Induced Seizure % Protection against GTCS (PTZ-induced seizure; 300 mg/kg i.p.): 100%; PTZ-Induced Seizure Average Seizure Score (PTZ-induced seizure; 300 mg/kg i.p.): 0.00 ± 0.00; STR-Induced Seizure % Protection against GTCS (STR-induced seizure; 300 mg/kg i.p.): 100%; STR-Induced Seizure Average Seizure Score (STR-induced seizure; 300 mg/kg i.p.): 0
"O=C(O)C(=O)O.c1ccc2cc(OCCCCCN3CCCCCC3)ccc2c1 [Ligand 2, 1-(5-(naphthalen-2-yloxy)pentyl)azepane hydrogen oxalate]",−,−,−,,
"O=C(O)C(=O)O.O=C(c1ccccc1)c1ccc(OCCCCCN2CCCCC2)cc1 [Ligand 14, phenyl(4-(5-(piperidin-1-yl)pentyloxy)phenyl)methanone hydrogen oxalate]","+ (moderate protective effect (tonic hind limb extension (THLE) duration in the range of 2–5 s, seizure score in the range of 2–4))","+ (moderate protective effect (tonic hind limb extension (THLE) duration in the range of 2–5 s, seizure score in the range of 2–4))",−,7.44,
"O=C(O)C(=O)O.O=C(c1ccccc1)c1cccc(OCCCCCCN2CCCCCC2)c1 [Ligand 10, (3-(6-(azepan-1-yl)hexyloxy)phenyl)(phenyl)methanone hydrogen oxalate]",−,−,−,7.16,
"O=C1NC(=O)C(c2ccccc2)(c2ccccc2)N1 [PHT, phenytoin, reference compound]",,,,,MES-Induced Seizure Average THLE (MES-induced seizure): 0.90 ± 0.19 s
"CC1CCCN(CCCCCCOc2ccc(F)cc2)C1.O=C(O)C(=O)O (stereo not shown) [Ligand 12, 1-(6-(4-fluorophenoxy)hexyl)-3-methylpiperidine hydrogen oxalate]",−,"+ (moderate protective effect (tonic hind limb extension (THLE) duration in the range of 2–5 s, seizure score in the range of 2–4))",−,,Ki (human histamine H3R): 83.6 nM
"O=C(O)C(=O)O.O=C(c1ccccc1)c1ccc(OCCCCCCN2CCCCCC2)cc1 [Ligand 7, (4-(6-(azepan-1-yl)hexyloxy)phenyl)(phenyl)methanone hydrogen oxalate]","+ (moderate protective effect (tonic hind limb extension (THLE) duration in the range of 2–5 s, seizure score in the range of 2–4))","++ (high protective effect (THLE duration <1, seizure score 0))",−,7.39,pKi (human H1 receptor): 6.04; fold lower affinity at hH1- and H4Rs than at H3R (human H1 receptor; selectivity toward H3Rs): at least 10 fold; pKi (hH4R): < 5.00; protective effect in PTZ-induced seizure (in words) (PTZ-induced seizure; 10 mg/kg i.p.): full protective activities; protective effect in STR-induced seizure (in words) (STR-induced seizure; 10 mg/kg i.p.): failed to exhibit appreciable protection
"O=C(O)C(=O)O.O=C(c1ccccc1)c1ccc(OCCCCCN2CCCCCC2)cc1 [Ligand 16, (4-(5-(azepan-1-yl)pentyloxy)phenyl)(phenyl)methanone hydrogen oxalate]",−,−,−,7.41,
"CC1CCCN(CCCCCOc2ccc3ccccc3c2)C1.O=C(O)C(=O)O (stereo not shown) [Ligand 1, 3-methyl-1-(5-(naphthalen-2-yloxy)pentyl)piperidine hydrogen oxalate]",−,−,−,,
"CC1CCCN(CCCCCCOc2ccc3ccccc3c2)C1.O=C(O)C(=O)O (stereo not shown) [Ligand 3, 3-methyl-1-(6-(naphthalen-2-yloxy)hexyl)piperidine hydrogen oxalate]","++ (high protective effect (THLE duration <1, seizure score 0))",−,−,,
"C[C@@H](N)Cc1c[nH]cn1 [RAMH, (R)-α-methylhistamine, reference compound]",,,,,MES-Induced Seizure Average THLE (MES-induced seizure): 7.92 ± 0.60 s; protective effect in MES-induced seizure (in words) (MES-induced seizure; vs saline-treated group): did not affect MES-induced seizures; PTZ-Induced Seizure % Protection against GTCS (PTZ-induced seizure; 10 mg/kg i.p.): 14.29%; PTZ-Induced Seizure Average Seizure Score (PTZ-induced seizure; 10 mg/kg i.p.): 4.29 ± 0.25; protective effect in PTZ-induced seizure (in words) (PTZ-induced seizure; 10 mg/kg i.p.): did not affect seizure score; STR-Induced Seizure % Protection against GTCS (STR-induced seizure; 10 mg/kg i.p.): 28.57%; STR-Induced Seizure Average Seizure Score (STR-induced seizure; 10 mg/kg i.p.): 4.71 ± 0.16
"Fc1ccc(OCCCCCCN2CCCCC2)cc1.O=C(O)C(=O)O [Ligand 11, 1-(6-(4-fluorophenoxy)hexyl)piperidine hydrogen oxalate]",−,"++ (high protective effect (THLE duration <1, seizure score 0))",−,,Ki (human histamine H3R): 115 nM; protective effect in PTZ-induced seizure (in words) (PTZ-induced seizure; 10 mg/kg i.p.): full protective activities; protective effect in STR-induced seizure (in words) (STR-induced seizure; 10 mg/kg i.p.): failed to exhibit appreciable protection
"CC1CCCN(CCCCCOc2ccc(C(=O)c3ccccc3)cc2)C1.O=C(O)C(=O)O (stereo not shown) [Ligand 15, (4-(5-(3-methylpiperidin-1-yl)pentyloxy)phenyl)(phenyl)methanone hydrogen oxalate]",−,"+ (moderate protective effect (tonic hind limb extension (THLE) duration in the range of 2–5 s, seizure score in the range of 2–4))",−,7.40,pKi (human H1 receptor): 5.87 to 6.04
"O=C(O)C(=O)O.O=C(c1ccccc1)c1cccc(OCCCCCCN2CCCCC2)c1 [Ligand 8, phenyl(3-(6-(piperidin-1-yl)hexyloxy)phenyl)methanone hydrogen oxalate]","+ (moderate protective effect (tonic hind limb extension (THLE) duration in the range of 2–5 s, seizure score in the range of 2–4))",−,−,7.12,
"O=C(O)C(=O)O.O=C(c1ccccc1)c1ccc(OCCCCCCN2CCCCC2)cc1 [Ligand 5, phenyl(4-(6-(piperidin-1-yl)hexyloxy)phenyl)methanone hydrogen oxalate]","++ (high protective effect (THLE duration <1, seizure score 0))",−,−,7.39,
"CC1CCCN(CCCCCCOc2cccc(C(=O)c3ccccc3)c2)C1.O=C(O)C(=O)O (stereo not shown) [Ligand 9, (3-(6-(3-methylpiperidin-1-yl)hexyloxy)phenyl)(phenyl)methanone hydrogen oxalate]",−,−,−,6.96,pKi (human H1 receptor): 5.87 to 6.04
